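Grown in 96-well plates, cells were treated for 48 hours with each compound at five concentrations. Insufficient inhibition: endpoint recorded as highest concentration tested. At the GI50, growth is halved. The concentration for full growth arrest is given as TGI.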

Among the test systems are A498 renal; BT-549 breast; HT29 colon; LOX IMVI melanoma; M14 melanoma; MALME-3M melanoma; MDA-MB-231 breast; MDA-MB-435; NCI-H23 lung; NCI-H522 lung.
Common to all, as to test: NCI anticancer screen, dose series, 48 h

As for `COC(=O)Nc1nc2ccc(S(=O)c3ccccc3)cc2[nH]1` (stereo unspecified), the GI50 in the assay with A498 renal is 15.5 µM; with BT-549 breast, 3.98 µM; in the assay with HT29 colon, 3.46 µM; in the assay with LOX IMVI melanoma it was 5.96 µM; with M14 melanoma, 3.11 µM; in the assay with MALME-3M melanoma it was 5.21 µM. The GI50 with MDA-MB-231 breast is 7.45 µM; in the assay with MDA-MB-435, 1.26 µM; in the assay with NCI-H23 lung, 8.79 µM; in the assay with NCI-H522 lung, 2.79 µM. Also, the TGI in the assay with A498 renal was greater than 100 µM; in the assay on BT-549 breast, greater than 100 µM; in the assay on HT29 colon, 54.1 µM; in the assay with LOX IMVI melanoma, greater than 100 µM; with M14 melanoma, greater than 100 µM; in the assay with MALME-3M melanoma it was greater than 100 µM. The TGI in the assay on MDA-MB-231 breast is greater than 100 µM; in the assay on MDA-MB-435 it was 3.94 µM; in the assay on NCI-H23 lung, greater than 100 µM; with NCI-H522 lung, 40.2 µM.
With `O=C(CN1CCN(c2cc3c(cc2F)c(=O)c(C(=O)N/N=C/c2ccccc2O)cn3C2CC2)CC1)N/N=C\c1ccccc1O`, the GI50 in the assay on A498 renal was 6.03 µM; in the assay on BT-549 breast it was 1.51 µM; in the assay with HT29 colon, 1.01 µM; with LOX IMVI melanoma, 0.232 µM; in the assay on M14 melanoma it was 0.384 µM; in the assay on MALME-3M melanoma, 0.627 µM. Also, the GI50 with MDA-MB-231 breast was 0.533 µM; in the assay on MDA-MB-435, 0.99 µM; in the assay with NCI-H23 lung, 0.801 µM; in the assay with NCI-H522 lung, 0.405 µM. Moreover, the TGI with A498 renal is greater than 100 µM; in the assay with BT-549 breast, greater than 100 µM; in the assay with HT29 colon, greater than 100 µM; in the assay on LOX IMVI melanoma, greater than 75.7 µM; with M14 melanoma it was 5.02 µM; with MALME-3M melanoma, greater than 63.4 µM. Further, the TGI was greater than 69.3 µM in the assay with MDA-MB-231 breast, greater than 100 µM in the assay on MDA-MB-435, greater than 100 µM in the assay with NCI-H23 lung and greater than 100 µM in the assay with NCI-H522 lung.
With `O=c1n(CC2CO2)c(=O)n(CC2CO2)n1CC1CO1` (stereo unspecified), the GI50 with A498 renal was 14.1 µM; in the assay with BT-549 breast it was 27.8 µM; in the assay on HT29 colon, 19.3 µM; in the assay on LOX IMVI melanoma, 16.7 µM; with M14 melanoma it was 21.9 µM; in the assay with MALME-3M melanoma, 64.1 µM. The GI50 in the assay on MDA-MB-231 breast is greater than 96.4 µM; in the assay with MDA-MB-435, 34.7 µM; in the assay on NCI-H23 lung, 22.7 µM; in the assay on NCI-H522 lung it was 12.8 µM. Besides, the TGI is 29.9 µM in the assay on A498 renal; greater than 100 µM in the assay with BT-549 breast; greater than 100 µM in the assay on HT29 colon; greater than 100 µM in the assay with LOX IMVI melanoma; greater than 100 µM in the assay on M14 melanoma; greater than 100 µM in the assay on MALME-3M melanoma. Also, the TGI in the assay on MDA-MB-231 breast was greater than 100 µM; in the assay on MDA-MB-435, greater than 100 µM; with NCI-H23 lung, greater than 100 µM; in the assay on NCI-H522 lung, greater than 49.2 µM.
Take `CN(C)c1ccc(-c2cc(-c3ccc(Nc4nc(Nc5ccc(Cl)cc5)nc(Nc5ccc(Cl)cc5)n4)cc3)no2)cc1`: the GI50 in the assay on A498 renal is 4.38 µM; in the assay with BT-549 breast it was 9.07 µM; in the assay on HT29 colon it was 5.08 µM; in the assay with LOX IMVI melanoma, 4.22 µM; with M14 melanoma, 2.62 µM; with MALME-3M melanoma, 13 µM. Further, the GI50 in the assay with MDA-MB-231 breast was 9.66 µM; in the assay on MDA-MB-435, 3.33 µM; in the assay with NCI-H23 lung, 6.41 µM; in the assay with NCI-H522 lung it was 2.57 µM. The TGI was 22.7 µM in the assay with A498 renal; 48.9 µM with BT-549 breast; 66.5 µM with HT29 colon; 35.6 µM with LOX IMVI melanoma; 13.3 µM in the assay on M14 melanoma; 36.9 µM in the assay on MALME-3M melanoma. The TGI in the assay on MDA-MB-231 breast is 37.7 µM; in the assay with MDA-MB-435 it was 32.3 µM; in the assay with NCI-H23 lung it was 35.8 µM; in the assay with NCI-H522 lung, 11.3 µM.
As to `Fc1ccc(Nc2ncnc3ccc(-c4cnc5[nH]ccc5c4)cc23)cc1Cl`, the GI50 is 3.11 µM in the assay on BT-549 breast; 2.05 µM with HT29 colon; 3.95 µM in the assay on LOX IMVI melanoma; 4.35 µM with M14 melanoma; 2.05 µM in the assay on MALME-3M melanoma; 2.03 µM in the assay with MDA-MB-231 breast. Moreover, the results for the GI50 with MDA-MB-435, with NCI-H23 lung and with NCI-H522 lung were 8.66 µM, 8.74 µM and 12.6 µM, respectively. Further, the TGI in the assay on BT-549 breast was greater than 27.9 µM; in the assay on HT29 colon, greater than 25.1 µM; with LOX IMVI melanoma it was greater than 29.4 µM; in the assay with M14 melanoma, greater than 100 µM; with MALME-3M melanoma, 7.84 µM; in the assay with MDA-MB-231 breast, 6.06 µM. Further, the results for the TGI with MDA-MB-435, with NCI-H23 lung and in the assay on NCI-H522 lung were greater than 80.1 µM, greater than 100 µM and 69.1 µM, respectively.
Consider `NC(CSC(c1ccccc1)(c1ccccc1)c1ccc2c(c1)OCO2)C(=O)O` (stereo unspecified), for which the GI50 was 0.518 µM in the assay on A498 renal; 0.559 µM in the assay on BT-549 breast; 1.81 µM in the assay on HT29 colon; 0.577 µM with LOX IMVI melanoma; 0.239 µM in the assay on M14 melanoma; 0.979 µM in the assay on MALME-3M melanoma. Further, the GI50 was 0.365 µM in the assay with MDA-MB-231 breast, 0.545 µM in the assay with NCI-H23 lung and 0.208 µM in the assay with NCI-H522 lung. The TGI with A498 renal was 30.5 µM; in the assay with BT-549 breast, 75.9 µM; in the assay with HT29 colon, greater than 44.5 µM; with LOX IMVI melanoma it was greater than 43.6 µM; in the assay on M14 melanoma it was 0.648 µM; in the assay on MALME-3M melanoma it was 74.4 µM. The TGI in the assay with MDA-MB-231 breast turned out to be 14.4 µM; with NCI-H23 lung, 32 µM; in the assay with NCI-H522 lung, 0.535 µM.
For `O=C1/C(=C/c2ccc([N+](=O)[O-])cc2)COc2ccc(O)c(O)c21`, the GI50 was 1.71 µM in the assay with A498 renal; 1.44 µM with BT-549 breast; 2.2 µM in the assay on HT29 colon; 1.05 µM with LOX IMVI melanoma; 1.54 µM in the assay with M14 melanoma; 1.84 µM with MALME-3M melanoma. For the same compound, the GI50 was 1.33 µM with MDA-MB-231 breast, 1.58 µM with MDA-MB-435, 1.77 µM in the assay on NCI-H23 lung and 0.204 µM in the assay with NCI-H522 lung. The TGI with A498 renal amounted to 3.91 µM; in the assay on BT-549 breast, 3.19 µM; in the assay with HT29 colon, 5.85 µM; in the assay on LOX IMVI melanoma it was 2.29 µM; in the assay on M14 melanoma it was 3.3 µM; in the assay on MALME-3M melanoma it was 5.22 µM. Also, the TGI in the assay on MDA-MB-231 breast is 2.81 µM; in the assay on MDA-MB-435, 3.08 µM; in the assay on NCI-H23 lung it was 3.74 µM; in the assay with NCI-H522 lung it was 0.474 µM.
